In the experiment the target is Estrogen receptor beta (Homo sapiens, UniProt Q92731).
Sequence of Estrogen receptor beta (Q92731 whole entry): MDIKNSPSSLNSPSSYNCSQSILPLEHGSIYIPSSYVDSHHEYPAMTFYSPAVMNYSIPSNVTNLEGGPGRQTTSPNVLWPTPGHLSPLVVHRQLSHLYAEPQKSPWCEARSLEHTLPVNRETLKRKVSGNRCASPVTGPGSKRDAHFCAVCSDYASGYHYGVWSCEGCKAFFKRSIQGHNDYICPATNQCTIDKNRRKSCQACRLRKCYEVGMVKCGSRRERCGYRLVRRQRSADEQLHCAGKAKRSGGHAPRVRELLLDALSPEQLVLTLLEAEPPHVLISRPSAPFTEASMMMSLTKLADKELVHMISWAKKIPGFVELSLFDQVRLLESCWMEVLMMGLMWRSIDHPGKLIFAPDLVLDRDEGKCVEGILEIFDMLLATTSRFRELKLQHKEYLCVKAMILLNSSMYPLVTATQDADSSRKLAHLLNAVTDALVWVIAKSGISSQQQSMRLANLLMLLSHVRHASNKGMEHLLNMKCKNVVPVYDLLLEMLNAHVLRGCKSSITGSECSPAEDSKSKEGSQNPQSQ
Description: Transcriptional potency (EC50) at Human estrogen receptor Beta
Consider `N#CC(C#N)(Cc1ccc(O)cc1)c1ccc(O)cc1`, for which a half-maximal response (EC50) required 21 nM.

For the molecule `Oc1ccc(CC(c2ccc(O)cc2)C(F)(F)F)cc1` (stereo not given), the EC50 stood at 2 nM.

Molecule `O=C(C(Cc1ccc(O)cc1)c1ccc(O)cc1)C(F)(F)F` (stereo not given) showed an EC50 of 160 nM.

As for `CC(C#N)(Cc1ccc(O)cc1)c1ccc(O)cc1` (stereo not given), a half-maximal response (EC50) required 8 nM.

For the molecule `N#CC[C@H](Cc1ccc(O)cc1)c1ccc(O)cc1`, it took 30 nM to reach a half-maximal effect (EC50).

Consider `C[C@H](c1ccc(O)cc1)[C@@H](C#N)c1ccc(O)cc1`, for which the EC50 worked out at 0.14 nM.

The molecule `Cc1cc(O)ccc1C(C#N)Cc1ccc(O)cc1` (stereo not given) returned an EC50 of 1.7 nM.

In turn, `CC(=O)C(Cc1ccc(O)cc1)c1ccc(O)cc1` (stereo not given) displayed an EC50 of 35 nM.

As to `Cc1cc(O)ccc1CC(C#N)c1ccc(O)cc1` (stereo not given), the concentration for a half-maximal effect (EC50) is 0.37 nM.

In the case of `CC[C@H](c1ccc(O)cc1)[C@@H](C#N)c1ccc(O)cc1`, the concentration for a half-maximal effect (EC50) was found to be 0.15 nM.

In the case of `CC#CC(Cc1ccc(O)cc1)c1ccc(O)cc1` (stereo not given), the EC50 is 2.1 nM.

Molecule `N#CC(c1ccc(O)cc1)C(C#N)c1cccc(O)c1` (stereo not given) registered an EC50 of 110 nM.

`N#C/C(=C/c1ccc(O)cc1)c1ccc(O)cc1` showed a 50% effective concentration (EC50) of 220 nM.

The molecule `N#C/C(=C\c1ccc(O)cc1)c1ccc(O)cc1` displayed an EC50 of 140 nM.

As for `C#CC(Cc1ccc(O)cc1)c1ccc(O)cc1` (stereo not given), the EC50 stood at 1.4 nM.

As for `COC(=O)C(Cc1ccc(O)cc1)c1ccc(O)cc1` (stereo not given), the midpoint of the response, the EC50, lay at 4.9 nM.

Consider `Oc1ccc(CC(c2ccc(O)cc2)C(F)(F)C(F)(F)F)cc1` (stereo not given), for which the midpoint of the response, the EC50, lay at 15 nM.

On to `C#CC(c1ccc(O)cc1)C(C#C)c1ccc(O)cc1` (racemic), for which the concentration giving a half-maximal response (EC50) amounted to 3.7 nM.

The molecule `N#CC(c1ccc(O)cc1)C(C#N)c1ccc(O)cc1` (stereo in doubt) came in with a concentration giving a half-maximal response (EC50) of 0.42 nM.

In turn, `N#CC(c1ccc(O)cc1)C(C#N)c1ccc(O)cc1` (stereo in doubt; 31a(dl)) displayed a concentration for a half-maximal effect (EC50) of 0.41 nM.

What is called EC50 is the concentration that produces a half-maximal response.
